According to US20120264231A1, “ASSAY FOR ORAI CALCIUM CHANNEL REGULATORS” (IMMUNE DISEASE INSTITUTE, INC., priority 2009, published 2012):

Legend:
ORAI1 = ORAI1 (Homo sapiens, UniProt Q96D31); assay: Fura-2 Ca^2+ flux assay, sec6-4 secretory vesicles with ORAI1; type: biochemical; parameters: the ORAI functional fragment is ORAI1 (65-301), ORAI1 (65-87), or full length ORAI1; made in house; host or cells: S. cerevisiae NY17 (sec6-4), isolated secretory vesicles, vector pBEVY-GU
Method: (§1) It was next asked whether STIM-ORAI protein-protein interaction is sufficient to open the ORAI Ca^2+ channel. Vesicles obtained from S cerevisiae expressing ORAI were incubated under conditions where Fura-2 was the principal Ca^2+ buffer in the extravesicular solution in order to monitor Ca^2+ efflux (Meyer, T., et al., Biochemistry 29, 32-37 (1990)).
Vesicles carrying ORAI 1 were isolated from S cerevisiae strain NY1 7 according to a standard protocol (Coury, L. A., et al., Methods Enzymol 306, 169-186 (1999); Nakamoto, R. K., et al., J Biol Chem 266, 7940-7949 (1991)). Efflux of Ca^2+ elicited by STIM1^CT fragments was detected by suspending the vesicles in a buffer containing Fura-2 as principal Ca^2+ buffer, and monitoring the Fura-2 fluorescence excitation spectrum (Meyer, T., et al., Biochemistry 29, 32-37 (1990)). As a complementary approach, ORAI 1 was coexpressed with a Ca^2+ sensor cameleon D3 cpV or cameleon D4 cpV53 that was targeted to the vesicles, and changes in intravesicular [Ca^2+] were detected as changes in FRET between CFP and YFP of the sensor.
S cerevisiae strain NY17 featuring the temperature-sensitive sec6-4 mutation was used for protein expression and purification of secretory vesicles as described (Nakamoto, R. K., et al., J Biol Chem 266, 7940-7949 (1991); Coury, L. A., et al., Methods Enzymol 306, 169-186 (1999)). Cells were grown to midlog phase at 25° C. in uracil-deficient synthetic complete medium containing glucose, which was subsequently exchanged for galactose to induce transgene expression over a period of 8 hours. The temperature was then switched to 37° C. for 3 hours to force intracellular accumulation of secretory vesicles. Cells were collected by centrifugation at 4,000×g for 5 min at 4° C., washed once in ice-cold water, resuspended at a concentration of 50-60 OD600 units/mL in 10 mM DTT, 100 mM Tris pH 9.4, and shaken gently at room temperature for 10 min. Cells were pelleted and resuspended at 50-60 OD600 units/mL in spheroplast buffer (1.4 M sorbitol, 50 mM K2HPO4 pH 7.5, 10 mM NaN3, 40 mM β-mercaptoethanol) containing Zymolyase 20T (50 units per g of yeast wet weight) and incubated for up to 1 h at 37° C. Spheroplasts were harvested at 3,000×g for 5 min at 4° C., resuspended in spheroplast buffer containing 10 mM MgCl2 and 1 mg/ml Concanavalin A at a density corresponding to 50 OD600 units/mL of the starting culture, and gently shaken at 4° C. for 15 min. […] Myc-tagged ORAI1 was detected in Western blots using the murine anti-Myc monoclonal antibody 9E10. […]

[1] = Fura-2 Ca^2+ flux assay, control vesicles; type: biochemical, S cerevisiae; conditions: STIM 1 cytoplasmic fragments 2 μM
Method: as §1
S cerevisiae strain NY17 featuring the temperature-sensitive sec6-4 mutation was used for protein expression and purification of secretory vesicles as described (Nakamoto, R. K., et al., J Biol Chem 266, 7940-7949 (1991); Coury, L. A., et al., Methods Enzymol 306, 169-186 (1999)). Cells were grown to midlog phase at 25° C. in uracil-deficient synthetic complete medium containing glucose, which was subsequently exchanged for galactose to induce transgene expression over a period of 8 hours. The temperature was then switched to 37° C. for 3 hours to force intracellular accumulation of secretory vesicles. […] Myc-tagged ORAI1 was detected in Western blots using the murine anti-Myc monoclonal antibody 9E10. […]
Fura-2 spectra were recorded at ambient temperature, 22-25° C., in 20 mM Tris pH 7.4, 100 mM KCl, containing 10 μM metal-free Fura-2. Excitation spectra were recorded by scanning from 300-450 nm while monitoring emission at 510 nm, using a 2-4 nm slitwidth for both excitation and emission. […]

[2] = STIM 1 cytoplasmic fragments 2 μM

Sequence of ORAI1 (Q96D31 2-301): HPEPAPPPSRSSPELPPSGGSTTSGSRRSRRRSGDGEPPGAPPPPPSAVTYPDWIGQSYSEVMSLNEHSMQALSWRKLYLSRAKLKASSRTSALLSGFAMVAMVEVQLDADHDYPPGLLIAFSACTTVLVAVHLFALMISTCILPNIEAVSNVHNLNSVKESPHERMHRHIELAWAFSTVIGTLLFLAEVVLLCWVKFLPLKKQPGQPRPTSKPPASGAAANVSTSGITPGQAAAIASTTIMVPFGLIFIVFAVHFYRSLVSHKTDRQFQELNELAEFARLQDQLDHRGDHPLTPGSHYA

Molecule	Ca^2+ efflux from vesicles with ORAI (Fura-2 excitation spectrum) (ORAI1; ionomycin 20 μM)	Ca^2+ efflux from vesicles with ORAI (Fura-2 excitation spectrum) (ORAI1; [2])	Ca^2+ release from control vesicles (Fura-2) [1]
C[C@H](CCC(=O)O)C[C@H](C)C[C@H](C)C(=O)/C=C(\O)[C@H](C)C[C@H](C)C/C=C/[C@@H](C)[C@@H](O)[C@@H](C)[C@@H](O)C[C@@H]1CC[C@@](C)([C@H]2CC[C@@](C)([C@@H](C)O)O2)O1 [ionomycin, reference compound]	release of Ca^2+ to the extravesicular solution		
STIM1 (233-463): truncated mouse STIM1 cytoplasmic fragment, residues 233-463, His-tagged recombinant protein		had little effect	
STIM1 (233-498): truncated mouse STIM1 cytoplasmic fragment, residues 233-498, His-tagged recombinant protein		elicited efflux of Ca^2+	neither STIM 1 fragment was effective
STIM1^CT: cytoplasmic region of STIM1, mouse residues 233-685, His-tagged recombinant protein expressed in E coli		elicited efflux of Ca^2+	neither STIM 1 fragment was effective
